Data from patent US20260184675A1, “CHIRAL ISOMERIC SULFITE COMPOUND AND APPLICATION THEREOF” (Chengdu Hanova BioSciences Co., Ltd, priority 2024, published 2026).

Assays:
eggs of Thrips = test: Effect on hatching of eggs of Thrips, leaf disc method; type: in vivo; settings: 100 ppm; for Hatching rate (%): 5 days after insecticide delivery
Summary of the method: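 Thrip egg hatching was tested by the leaf disc method on Vicia faba discs 2.0 cm across, placed over wetted filter paper. Egg numbers on each disc were counted under a microscope before treatment. Discs were then dipped for 10 seconds in clean water or a compound solution at 100 ppm. They were kept moist under normal conditions, and hatching was surveyed five days after insecticide delivery.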

eggs of Aleyrodidae = test: Effect on hatching of eggs of Aleyrodidae, leaf disc method; type: in vivo; settings: 10 ppm; for Hatching rate (%), Replicate 1 / Hatching rate (%), Replicate 2 / Hatching rate (%), Replicate 3 / Number of hatched larvae 5 days after insecticide delivery, Replicate 1 / Number of hatched larvae 5 days after insecticide delivery, Replicate 2 / Number of hatched larvae 5 days after insecticide delivery, Replicate 3: Aleyrodidae eggs; for Hatching rate (%), Replicate 1 / Hatching rate (%), Replicate 2 / Hatching rate (%), Replicate 3: 5 days after delivery; for Number of hatched larvae 5 days after insecticide delivery, Replicate 1 / Number of hatched larvae 5 days after insecticide delivery, Replicate 2 / Number of hatched larvae 5 days after insecticide delivery, Replicate 3: leaf disc
Summary of the method: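 Inhibition of Aleyrodidae egg hatching was tested with a leaf disc method at 10 ppm. Egg numbers on each disc were counted under a microscope before treatment. Discs bearing eggs were soaked for 10 seconds in clear water or test solution, removed, and kept under moist conditions. Hatching was checked five days after insecticide delivery and hatched larvae were counted.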

[1] = test system: eggs of Spodoptera litura; test: Effect on hatching of eggs of Spodoptera litura, egg piece soaking; type: in vivo; settings: 500 ppm; for Hatching rate (%), Replicate 1 / Hatching rate (%), Replicate 2 / Hatching rate (%), Replicate 3 / Number of unhatched larvae 4 days after insecticide delivery, Replicate 1 / Number of unhatched larvae 4 days after insecticide delivery, Replicate 2 / Number of unhatched larvae 4 days after insecticide delivery, Replicate 3: Spodoptera litura eggs; for Hatching rate (%), Replicate 1 / Hatching rate (%), Replicate 2 / Hatching rate (%), Replicate 3: 4 days after delivery; for Number of unhatched larvae 4 days after insecticide delivery, Replicate 1 / Number of unhatched larvae 4 days after insecticide delivery, Replicate 2 / Number of unhatched larvae 4 days after insecticide delivery, Replicate 3: soaked 10 minutes
Summary of the method: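 Egg pieces of about 60 eggs were soaked 10 min in test agent at 500 ppm, blotted, then held singly at 24±1 °C, 80±10% RH, 12:12 L:D. Hatched and unhatched eggs were counted on day 4 to give hatching rate and control effect; 3 replicates.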

[2] = test system: eggs of Harmonia axyridis; test: Effect on hatching of eggs of Harmonia axyridis, egg card immersion; type: in vivo; settings: 100 ppm; for Number of hatched larvae 4 days after insecticide delivery, Replicate 1 / Number of hatched larvae 4 days after insecticide delivery, Replicate 2 / Number of hatched larvae 4 days after insecticide delivery, Replicate 3: Harmonia axyridis egg cards, immersed 30 seconds; for Hatching rate (%), Replicate 1 / Hatching rate (%), Replicate 2 / Hatching rate (%), Replicate 3: Harmonia axyridis eggs, 4 days after delivery
Summary of the method: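 Egg cards (~20 eggs each) dipped 30 s in 100 ppm insecticide, air dried and kept moist at 27° C; 5 cards per treatment, 3 replicates. Hatching assessed 4 days after treatment against pre-treatment egg counts, and control effect calculated by formula.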

Magnaporthe grisea = type: cell-based; settings: 100 ppm; for Average antifungal rate (%) / Antifungal rate of Magnaporthe grisea (%), Replicate 1 / Antifungal rate of Magnaporthe grisea (%), Replicate 2 / Antifungal rate of Magnaporthe grisea (%), Replicate 3: 96-well plate; for Average antifungal rate (%): average of 3 replicates

CC(C)(COc1ccc(Cl)cc1Cl)OS(=O)OCCF (stereo not shown) [Compound R-10]
Hatching rate (%) (eggs of Thrips; Replicate 1): 15.31% | Hatching rate (%) (eggs of Thrips; Replicate 2): 14.50% | Hatching rate (%) (eggs of Thrips; Replicate 3): 14.53% | Number of hatched larvae 5 days after insecticide delivery (eggs of Thrips; Replicate 1): 15 | Number of hatched larvae 5 days after insecticide delivery (eggs of Thrips; Replicate 2): 19 | Number of hatched larvae 5 days after insecticide delivery (eggs of Thrips; Replicate 3): 17 | Hatching rate (%), Replicate 1 (eggs of Aleyrodidae): 9.79% | Hatching rate (%), Replicate 2 (eggs of Aleyrodidae): 9.42% | Hatching rate (%), Replicate 3 (eggs of Aleyrodidae): 9.92% | Number of hatched larvae 5 days after insecticide delivery, Replicate 1 (eggs of Aleyrodidae): 14 | Number of hatched larvae 5 days after insecticide delivery, Replicate 2 (eggs of Aleyrodidae): 13 | Number of hatched larvae 5 days after insecticide delivery, Replicate 3 (eggs of Aleyrodidae): 12 | Hatching rate (%), Replicate 1 [1]: 60.87% | Hatching rate (%), Replicate 2 [1]: 64.15% | Hatching rate (%), Replicate 3 [1]: 62.07% | Number of unhatched larvae 4 days after insecticide delivery, Replicate 1 [1]: 27 | Number of unhatched larvae 4 days after insecticide delivery, Replicate 2 [1]: 19 | Number of unhatched larvae 4 days after insecticide delivery, Replicate 3 [1]: 22 | Number of hatched larvae 4 days after insecticide delivery, Replicate 1 [2]: 15 | Number of hatched larvae 4 days after insecticide delivery, Replicate 2 [2]: 10 | Number of hatched larvae 4 days after insecticide delivery, Replicate 3 [2]: 13 | Hatching rate (%), Replicate 1 [2]: 12.00% | Hatching rate (%), Replicate 2 [2]: 11.90% | Hatching rate (%), Replicate 3 [2]: 12.87% | inhibitory rate against Magnaporthe grisea (in words) (Magnaporthe grisea): strong inhibitory rate | Average antifungal rate (%) (Magnaporthe grisea): 82.52% | Antifungal rate of Magnaporthe grisea (%), Replicate 1 (Magnaporthe grisea): 81.97% | Antifungal rate of Magnaporthe grisea (%), Replicate 2 (Magnaporthe grisea): 83.68% | Antifungal rate of Magnaporthe grisea (%), Replicate 3 (Magnaporthe grisea): 81.92%

CC(C)(COc1ccc(Cl)cc1Cl)OS(=O)OCCF (stereo not shown) [Compound S-10]
inhibitory activity on the hatching of eggs of Thrips (in words) (eggs of Thrips): strong inhibitory activities | Hatching rate (%) (eggs of Thrips; Replicate 1): 0.00% | Hatching rate (%) (eggs of Thrips; Replicate 2): 0.00% | Hatching rate (%) (eggs of Thrips; Replicate 3): 0.00% | Number of hatched larvae 5 days after insecticide delivery (eggs of Thrips; Replicate 1): 0 | Number of hatched larvae 5 days after insecticide delivery (eggs of Thrips; Replicate 2): 0 | Number of hatched larvae 5 days after insecticide delivery (eggs of Thrips; Replicate 3): 0 | inhibitory activity on the hatching of eggs of Aleyrodidae (in words) (eggs of Aleyrodidae): strong inhibitory activities | Hatching rate (%), Replicate 1 (eggs of Aleyrodidae): 0.00% | Hatching rate (%), Replicate 2 (eggs of Aleyrodidae): 0.00% | Hatching rate (%), Replicate 3 (eggs of Aleyrodidae): 0.00% | Number of hatched larvae 5 days after insecticide delivery, Replicate 1 (eggs of Aleyrodidae): 0 | Number of hatched larvae 5 days after insecticide delivery, Replicate 2 (eggs of Aleyrodidae): 0 | Number of hatched larvae 5 days after insecticide delivery, Replicate 3 (eggs of Aleyrodidae): 0 | inhibitory activity on the hatching of eggs of Spodoptera litura (in words) [1]: good inhibitory activities | Hatching rate (%), Replicate 1 [1]: 21.43% | Hatching rate (%), Replicate 2 [1]: 22.86% | Hatching rate (%), Replicate 3 [1]: 24.19% | Number of unhatched larvae 4 days after insecticide delivery, Replicate 1 [1]: 44 | Number of unhatched larvae 4 days after insecticide delivery, Replicate 2 [1]: 54 | Number of unhatched larvae 4 days after insecticide delivery, Replicate 3 [1]: 47 | inhibitory activity on the hatching of eggs of Harmonia axyridis (in words) [2]: strong inhibitory activities | Number of hatched larvae 4 days after insecticide delivery, Replicate 1 [2]: 0 | Number of hatched larvae 4 days after insecticide delivery, Replicate 2 [2]: 0 | Number of hatched larvae 4 days after insecticide delivery, Replicate 3 [2]: 0 | Hatching rate (%), Replicate 1 [2]: 0.00% | Hatching rate (%), Replicate 2 [2]: 0.00% | Hatching rate (%), Replicate 3 [2]: 0.00% | inhibitory rate against Magnaporthe grisea (in words) (Magnaporthe grisea): strong inhibitory rate | Average antifungal rate (%) (Magnaporthe grisea): 98.62% | Antifungal rate of Magnaporthe grisea (%), Replicate 1 (Magnaporthe grisea): 98.63% | Antifungal rate of Magnaporthe grisea (%), Replicate 2 (Magnaporthe grisea): 99.72% | Antifungal rate of Magnaporthe grisea (%), Replicate 3 (Magnaporthe grisea): 97.51%

CC(C)(COS(=O)OCCF)Oc1ccc(Cl)cc1Cl (stereo not shown) [R-10′]
Hatching rate (%) (eggs of Thrips; Replicate 1): 13.93% | Hatching rate (%) (eggs of Thrips; Replicate 2): 15.05% | Hatching rate (%) (eggs of Thrips; Replicate 3): 13.97% | Number of hatched larvae 5 days after insecticide delivery (eggs of Thrips; Replicate 1): 17 | Number of hatched larvae 5 days after insecticide delivery (eggs of Thrips; Replicate 2): 14 | Number of hatched larvae 5 days after insecticide delivery (eggs of Thrips; Replicate 3): 19 | Hatching rate (%), Replicate 1 (eggs of Aleyrodidae): 9.77% | Hatching rate (%), Replicate 2 (eggs of Aleyrodidae): 10.23% | Hatching rate (%), Replicate 3 (eggs of Aleyrodidae): 10.16% | Number of hatched larvae 5 days after insecticide delivery, Replicate 1 (eggs of Aleyrodidae): 13 | Number of hatched larvae 5 days after insecticide delivery, Replicate 2 (eggs of Aleyrodidae): 9 | Number of hatched larvae 5 days after insecticide delivery, Replicate 3 (eggs of Aleyrodidae): 13 | Hatching rate (%), Replicate 1 [1]: 61.82% | Hatching rate (%), Replicate 2 [1]: 62.07% | Hatching rate (%), Replicate 3 [1]: 63.64% | Number of unhatched larvae 4 days after insecticide delivery, Replicate 1 [1]: 21 | Number of unhatched larvae 4 days after insecticide delivery, Replicate 2 [1]: 22 | Number of unhatched larvae 4 days after insecticide delivery, Replicate 3 [1]: 24 | Number of hatched larvae 4 days after insecticide delivery, Replicate 1 [2]: 17 | Number of hatched larvae 4 days after insecticide delivery, Replicate 2 [2]: 14 | Number of hatched larvae 4 days after insecticide delivery, Replicate 3 [2]: 12 | Hatching rate (%), Replicate 1 [2]: 12.78% | Hatching rate (%), Replicate 2 [2]: 13.73% | Hatching rate (%), Replicate 3 [2]: 12.77% | inhibitory rate against Magnaporthe grisea (in words) (Magnaporthe grisea): strong inhibitory rate | Average antifungal rate (%) (Magnaporthe grisea): 82.60% | Antifungal rate of Magnaporthe grisea (%), Replicate 1 (Magnaporthe grisea): 82.71% | Antifungal rate of Magnaporthe grisea (%), Replicate 2 (Magnaporthe grisea): 81.95% | Antifungal rate of Magnaporthe grisea (%), Replicate 3 (Magnaporthe grisea): 83.14%

CC(C)(COS(=O)OCCF)Oc1ccc(Cl)cc1Cl (stereo not shown) [S-10′]
inhibitory activity on the hatching of eggs of Thrips (in words) (eggs of Thrips): strong inhibitory activities | Hatching rate (%) (eggs of Thrips; Replicate 1): 0.00% | Hatching rate (%) (eggs of Thrips; Replicate 2): 0.00% | Hatching rate (%) (eggs of Thrips; Replicate 3): 0.00% | Number of hatched larvae 5 days after insecticide delivery (eggs of Thrips; Replicate 1): 0 | Number of hatched larvae 5 days after insecticide delivery (eggs of Thrips; Replicate 2): 0 | Number of hatched larvae 5 days after insecticide delivery (eggs of Thrips; Replicate 3): 0 | inhibitory activity on the hatching of eggs of Aleyrodidae (in words) (eggs of Aleyrodidae): strong inhibitory activities | Hatching rate (%), Replicate 1 (eggs of Aleyrodidae): 0.00% | Hatching rate (%), Replicate 2 (eggs of Aleyrodidae): 0.00% | Hatching rate (%), Replicate 3 (eggs of Aleyrodidae): 0.00% | Number of hatched larvae 5 days after insecticide delivery, Replicate 1 (eggs of Aleyrodidae): 0 | Number of hatched larvae 5 days after insecticide delivery, Replicate 2 (eggs of Aleyrodidae): 0 | Number of hatched larvae 5 days after insecticide delivery, Replicate 3 (eggs of Aleyrodidae): 0 | inhibitory activity on the hatching of eggs of Spodoptera litura (in words) [1]: good inhibitory activities | Hatching rate (%), Replicate 1 [1]: 22.03% | Hatching rate (%), Replicate 2 [1]: 21.88% | Hatching rate (%), Replicate 3 [1]: 21.67% | Number of unhatched larvae 4 days after insecticide delivery, Replicate 1 [1]: 46 | Number of unhatched larvae 4 days after insecticide delivery, Replicate 2 [1]: 50 | Number of unhatched larvae 4 days after insecticide delivery, Replicate 3 [1]: 47 | inhibitory activity on the hatching of eggs of Harmonia axyridis (in words) [2]: strong inhibitory activities | Number of hatched larvae 4 days after insecticide delivery, Replicate 1 [2]: 0 | Number of hatched larvae 4 days after insecticide delivery, Replicate 2 [2]: 0 | Number of hatched larvae 4 days after insecticide delivery, Replicate 3 [2]: 0 | Hatching rate (%), Replicate 1 [2]: 0.00% | Hatching rate (%), Replicate 2 [2]: 0.00% | Hatching rate (%), Replicate 3 [2]: 0.00% | inhibitory rate against Magnaporthe grisea (in words) (Magnaporthe grisea): strong inhibitory rate | Average antifungal rate (%) (Magnaporthe grisea): 99.31% | Antifungal rate of Magnaporthe grisea (%), Replicate 1 (Magnaporthe grisea): 100.03% | Antifungal rate of Magnaporthe grisea (%), Replicate 2 (Magnaporthe grisea): 99.64% | Antifungal rate of Magnaporthe grisea (%), Replicate 3 (Magnaporthe grisea): 98.27%
